What was measured:
human recombinant COX-1 = target: T1, human recombinant COX-1 (Homo sapiens, UniProt P23219); type: biochemical; conditions: 20 μM, incubation 10 min
T1 construct: purchased Cayman Chemicals
Procedure: (§1) COX-1/2 inhibition was evaluated in an established assay on isolated isoenzymes. After incubation with the drugs (concentration: 20 μM) for 10 min, the remaining COX activity was measured by an enzyme-linked immunosorbent assay (ELISA).
(§2) The incubation time of the compounds with the respective isoenzymes was exactly 10 min. The results are presented as the mean ± SEM of three independent experiments, with two replicates of each experiment. […] Graphs were drawn using GraphPad Prism 8.0.

human recombinant COX-2 = target: T2, human recombinant COX-2 (Homo sapiens, UniProt P35354); type: biochemical; conditions: 20 μM, incubation 10 min
T2 construct: purchased Cayman Chemicals
T2 sequence (P35354 18-604): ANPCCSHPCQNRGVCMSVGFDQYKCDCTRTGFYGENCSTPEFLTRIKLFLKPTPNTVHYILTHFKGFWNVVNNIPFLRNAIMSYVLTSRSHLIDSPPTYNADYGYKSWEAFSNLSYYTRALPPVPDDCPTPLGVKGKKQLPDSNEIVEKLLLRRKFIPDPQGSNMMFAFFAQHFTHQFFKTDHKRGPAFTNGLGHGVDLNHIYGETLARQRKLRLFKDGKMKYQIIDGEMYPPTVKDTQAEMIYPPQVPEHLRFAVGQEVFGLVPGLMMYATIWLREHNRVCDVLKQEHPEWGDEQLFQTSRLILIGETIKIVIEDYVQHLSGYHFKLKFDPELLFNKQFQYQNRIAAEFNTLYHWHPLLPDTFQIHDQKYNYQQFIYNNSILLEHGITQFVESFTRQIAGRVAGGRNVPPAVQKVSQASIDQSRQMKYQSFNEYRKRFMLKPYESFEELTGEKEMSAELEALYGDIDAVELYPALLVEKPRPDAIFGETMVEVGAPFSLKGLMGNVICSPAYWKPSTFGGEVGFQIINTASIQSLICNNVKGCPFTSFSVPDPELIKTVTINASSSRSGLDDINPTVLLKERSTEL
Procedure: as §1, §2

MCF-7 cells = assay: MTT assay of metabolic activity, MCF-7; type: cell-based, human; conditions: 72 h, MTT; read-out: IC50 MCF-7
Procedure: (§3) The GW7604-Alk-PtCl3 complexes (with exclusion of GW7604-Prop-PtCl3) were investigated for cytotoxic effects in SKBr3 (ER-negative, COX-2-positive, Figure 6), MCF-7 (ERα-positive, COX-negative, Figure 6), and noncancerous TSA-201 (human embryonal kidney) cells at concentrations of 10–30 μM using an established MTT (3-(4,5-dimethylthiazol-2-yl)-2,5-diphenyltetrazolium bromide) assay.[60],[69]
(§4) After incubation for 72 h, the amounts of surviving, metabolically active cells were quantified based on their ability to transform the water-soluble yellow dye MTT to a purple formazan, which can be analyzed by UV–vis spectroscopy.
(§5) The exponentially growing cells were seeded at a density of 1750 (MCF-7), 2000 (SKBr3), and 1250 (TSA-201) cells/well into clear flat-bottom 96-well plates in triplicate. Following 24 h of incubation at 37 °C in a humidified atmosphere (5% CO2/95% air), the compounds [freshly prepared stock solutions in DMF, diluted with DMEM to the desired concentration (final DMF concentration of 0.1% (v/v))] were added to reach the indicated concentrations. After another 72 h of incubation, the cellular metabolic activity was measured employing an MTT assay. By adding predissolved MTT reagent in PBS at a final concentration of 0.5 mg/mL, the metabolic activity can be determined via an enzymatic conversion to a purple formazan salt. After 3 h, the medium was aspirated, and 200 μL of DMSO was added to dissolve the formed formazan crystals. The absorbance was measured at 570 and 690 nm (turbidity assessment) using an EnSpire plate reader (PerkinElmer, Waltham, MA, USA). Solvent-treated cells without a compound served as the positive control. Metabolic activity was calculated by the following equation [drawing 1]

COX-1 = test system: COX-1; design: method as in PMID 29848978; conditions: 10 μM, incubation time 10 min; cited from earlier work
TSA-201 cells = assay: MTT assay of metabolic activity, noncancerous TSA-201; type: cell-based, human; conditions: 72 h, MTT; read-out: IC50 TSA-210
Procedure: as §3, §4, §5

tumor cells = test system: tumor cells; design: method as in PMID 25604474; conditions: cited from earlier work
[1] = Stability in organic solutions (1H NMR); type: physicochemical; conditions: DMSO-d6, measured after 5 min / immediately after dissolution
Procedure: Furthermore, it needs to be clarified whether organic solvent molecules are capable of ligand exchange reactions at the PtCl3 unit and form corresponding reaction/degradation products of the GW7604-Alk-PtCl3 complexes. Therefore, ^1H NMR experiments were performed with noncoordinating [e.g., acetone-d6, methanol-d4] and coordinating [e.g., acetonitrile-d3 , DMF-d7, dimethyl sulfoxide-d6 (DMSO-d6)] solvents. It should further be assessed whether the solvents are suitable for preparing stock solutions for structural characterization or in vitro testing.
The solutions (concentrations of 4.5–5.0 mM) were stored in NMR tubes at room temperature (rt) after being purged with argon.

SKBr3 cells = assay: MTT assay of metabolic activity, SKBr3; type: cell-based, human; conditions: 72 h, MTT
Procedure: as §3, §4, §5

COX-2 = test system: COX-2; design: method as in PMID 29848978; conditions: comparable concentration (10 μM); cited from earlier work

T1 sequence (P23219 24-599): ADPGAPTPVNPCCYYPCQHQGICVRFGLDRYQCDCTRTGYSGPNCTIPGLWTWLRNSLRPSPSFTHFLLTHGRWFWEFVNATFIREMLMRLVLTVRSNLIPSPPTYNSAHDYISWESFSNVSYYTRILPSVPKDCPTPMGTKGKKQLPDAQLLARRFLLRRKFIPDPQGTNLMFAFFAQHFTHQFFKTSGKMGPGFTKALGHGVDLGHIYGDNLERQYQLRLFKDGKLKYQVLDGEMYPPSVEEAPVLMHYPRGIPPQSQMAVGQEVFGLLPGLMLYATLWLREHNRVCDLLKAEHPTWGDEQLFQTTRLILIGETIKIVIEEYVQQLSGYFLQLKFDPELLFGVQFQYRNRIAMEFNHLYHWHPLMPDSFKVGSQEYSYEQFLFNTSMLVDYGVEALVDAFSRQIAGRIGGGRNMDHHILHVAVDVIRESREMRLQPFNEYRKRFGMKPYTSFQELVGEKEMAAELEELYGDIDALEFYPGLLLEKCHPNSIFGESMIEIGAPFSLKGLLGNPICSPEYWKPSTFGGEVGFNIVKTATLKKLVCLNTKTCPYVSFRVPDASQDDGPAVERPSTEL

With `C=C.O.[Cl][Pt-]([Cl])[Cl].[K+]` [Zeise’s salt, K[PtCl3(C2H4)]] the “% COX-1 inhibition” value (human recombinant COX-1) was 83%, the “% COX-2 inhibition” value (human recombinant COX-2) was 0% and the IC50 (MCF-7 cells) was over 20 µM. The COX-1 inhibition (COX-1) was 100%, the IC50 (TSA-201 cells) was over 20 µM and the “cytotoxicity against tumor cells in vitro” value (tumor cells) was “no cytotoxicity”. For the same compound, the “stability in DMSO-d6” value [1] was “gas bubbling occurred from the released ethylene”, the IC50 (SKBr3 cells) was over 20 µM and the COX-2 inhibition (COX-2) was “inactive”.
